Laboratory results reported in patent US7803382B2, “Method for inducing immune response to NY-CO-58” (Ludwig Institute for Cancer Research Ltd., priority 2001, dated 2010).

What was measured:
[1] = test system: CD4+ T cells; experiment: ELISPOT of peptide-stimulated CD4+ T cells from patients; type: cell-based, human; conditions: autologous targets presenting peptide
Protocol: Given the correlation between humoral and cellular immunity observed with CT antigens such as NY-ESO-1 (Jager et al. J Exp Med. 1998 Jan. 19; 187(2):265-70) and SSX2 (Ayyoub et al. J Immunol. 2002 Feb. 15; 168(4):1717-22, Tureci et al. Cancer Res. 1996 Oct. 15; 56(20):4766-72.), these two patients were analyzed to look for the presence of T cell responses. Nine long peptides (30AA) were synthesized from the sequence of NY-CO-58 (SEQ ID NO:20) on the basis of the presence of anchor motifs for various class I molecules. Five prediction algorithms were used to map potential these potential anchor motifs which correspond to potential epitopes, resulting in the selection of the following polypeptides: 3-32 (SEQ ID NO:31), 51-80 (SEQ ID NO:35), 151-180 (SEQ ID NO:36), 271-300 (SEQ ID NO:37), 375-404 (SEQ ID NO:38), 403-432 (SEQ ID NO:33), 510-539 (SEQ ID NO:39), 633-662 (SEQ ID NO:40), and 692-721 (SEQ ID NO:34).
CD8^+ and CD4^+ T cells were then purified from peripheral blood lymphocytes (PBLs) from the two patients and were stimulated with these peptides either individually or in pools of 2-3 peptides (Gnjatic et al. J Immunol. 2003 Feb. 1; 170(3):1191-6). The stimulated CD8^+ T cells were then tested for recognition of the same stimulator peptide(s), either individually or pools in standard ELISPOT assays (Jager Proc Natl Acad Sci USA. 2000 Apr. 25; 97(9):4760-5, Gnjatic et al. Proc Natl Acad Sci USA. 2000 Sep. 26; 97(20):10917-22).
In these same patients CD4^+ T cell responses were investigated. CD4^+ T cells were stimulated with the peptides individually or in pools of 2-3 peptides as done with CD8^+ T cells. The stimulated peptides were tested in ELISPOT assays using autologous targets presenting the stimulator peptide(s). […] Recognition of control autologous targets, either unpulsed cells or cells presenting irrelevant peptide.
An additional sample of PBLs was obtained from patient UKE-16. The patient remained positive for serum NY-CO-58 specific antibody. Again, CD4^+ T cells were stimulated with peptides derived from the NY-CO-58 sequence. This time additional “minimal” 12-mer epitopes selected from within the 30-mer polypeptides using the ProPred prediction algorithm (Singh, H. and Raghava, G. P. S. (2001) ProPred: Prediction of HLA-DR binding sites. Bioinformatics, 17(12), 1236-37, Propred server available online from Drs Raghava and Singh, Bioinformatics Center, Institute of Microbial Technology, Chandigarh, India). The 12-mer peptides corresponded to amino acid 15-26 (SEQ ID NO:32) and 699-710 (SEQ ID NO:41) of NY-CO-58 (SEQ ID NO:20). Analysis of the responses was carried out by ELISPOT assay as before. Peptide 15-26 was recognized by CD4^+ T cells from patient UKE-16 and represents a minimal epitope within amino acid 3-32 (SEQ ID NO:31). This also confirmed that the T cell reactivity was specific to the peptides and not due to an irrelevant contaminant, which would be unlikely to be present within two separate batches of synthetic peptides.

[2] = test system: peripheral blood lymphocytes; type: cell-based, HHD mice
[3] = test system: splenocytes; type: cell-based, HHD mice
[4] = test system: sera from colon cancer patients; experiment: Spot assay: reactivity of serologically defined colon cancer antigens with colon cancer patient sera; type: binding, human; conditions: reactive sera/sera tested; includes autologous where applicable; sera 1:200
Protocol: Serum samples from patients with colon cancer were screened using a modification of the plaque assay, termed a spot assay. In this method, 80×120 mm nitrocellulose membranes were precoated with a film of NZY/0.7% Agarose/2.5 mM IPTG and placed on a reservoir layer of NZY/0.7% Agarose in a 86×128 mm Omni Tray (Nalge Nunc International Corp., Naperville, Ill.). Approximately 1.0×10^5 pfU of monoclonal phage encoding individual serologically defined colon cancer antigens, in a volume of 20 μl, were mixed with 20 μl of exponentially growing E. coli XL-1 Blue MRF and spotted (0.7-μl aliquots) on the precoated nitrocellulose membranes. Membranes were incubated for 15 hours at 37° C. A total of 75 different serologically defined colon cancer antigens were spotted in duplicate per nitrocellulose membrane. The agarose film was then removed from the membrane and the filters were processed for reactivity with individual serum samples (1:200 dilution), as described in Scanlan, et al., Int. J. Cancer 76:652-658 (1998) and Scanlan, et al., Int. J. Cancer 83:456-64, (1999).

KHFSALRDVIKALRLAMQLEEQASRQISSK (listed as Homo sapiens) [692-721, fragment of NY-CO-58, residues 692-721]
CD4+ T cell response, ELISPOT ([1]; patient UKE-1): reactive | CD4+ T cell response, ELISPOT ([1]; patient UKE-16): reacted very clearly

EIYNGKLFDLLNKKAKLRVLEDGKQQVQVV (listed as Homo sapiens) [peptide 403-432, fragment of NY-CO-58, residues 403-432]
CD4+ T cell response, ELISPOT ([1]; patient UKE-1): responded

MDSSLQARLFPGLAIKIQRSNGLIHSANVR (listed as Homo sapiens) [3-32]
CD4+ T cell response, ELISPOT ([1]; patient UKE-1): reactive | CD4+ T cell response, ELISPOT ([1]; patient UKE-16): reacted very clearly

KLGLEVYVT (listed as Homo sapiens)
ex vivo ELISPOT response from PBL [2]: not seen | ELISPOT response after in vitro restimulation [3]: responses were detected

NLEKSCVSV (listed as Homo sapiens)
ex vivo ELISPOT response from PBL [2]: not seen | ELISPOT response after in vitro restimulation [3]: responses were detected

SLLALKECI (listed as Homo sapiens)
ex vivo ELISPOT response from PBL [2]: showed a response | ELISPOT response after in vitro restimulation [3]: confirmed

CO-95 (KIAA1416): serologically defined colon cancer antigen, protein SEQ ID NO:16
Reactivity of individual antigens [4]: 4/75

LAIKIQRSNGLI (listed as Homo sapiens) [peptide 15-26, minimal 12-mer of NY-CO-58, residues 15-26]
CD4+ T cell response, ELISPOT ([1]; patient UKE-16): recognized

LQARLFPGL (listed as Homo sapiens)
ex vivo ELISPOT response from PBL [2]: not seen | ELISPOT response after in vitro restimulation [3]: responses were detected
